From PubChem BioAssay AID246 (DTP/NCI, 2004)
Several values for one entry are separate records, joined by “and”; a condition that tells them apart may be missing. Equal values may be shown once. Toxic doses and inconclusive results are not listed.

System: BDF1 mice, P1081 chloroleukemia ip, survival T/C
Experiment: NCI In Vivo Anticancer Drug Screen. Data for tumor model P1081 Chloroleukemia (intraperitoneal) in B6D2F1 (BDF1) mice
Conditions: endpoint: mean survival time, higher = longer survival
Procedure: The antitumor activity of compounds was measured in mice bearing transplantable tumors. Survival or tumor size were measured and the results are expressed as the measurement made in the treated group (T) divided by the measurement made in the vehicle treated control group (C). The tumor model used in this assay is P1081 Chloroleukemia (intraperitoneal) in B6D2F1 (BDF1) mice

[1] = dose: 125.0 mg/kg/injection, schedule: Q01DX Z (sc), vehicle: steriod suspending solution
[2] = dose: 0.5 mg/kg/injection, schedule: Q01DX010 (ip), vehicle: saline
[3] = dose: 1.0 mg/kg/injection, schedule: Q01DX010 (ip), vehicle: saline
[4] = dose: 62.5 mg/kg/injection, schedule: Q01DX010 (ip), vehicle: saline
[5] = dose: 125.0 mg/kg/injection, schedule: Q01DX010 (ip), vehicle: saline
[6] = dose: 250.0 mg/kg/injection, schedule: Q01DX010 (ip), vehicle: saline
[7] = dose: 500.0 mg/kg/injection, schedule: Q01DX010 (ip), vehicle: saline
[8] = dose: 12.5 mg/kg/injection, schedule: Q01DX010 (ip), vehicle: saline
[9] = dose: 25.0 mg/kg/injection, schedule: Q01DX010 (ip), vehicle: saline
[10] = dose: 6.25 mg/kg/injection, schedule: Q01DX Z (ip), vehicle: carboxymethylcellulose (CMC)
[11] = dose: 12.5 mg/kg/injection, schedule: Q01DX Z (ip), vehicle: carboxymethylcellulose (CMC)
[12] = dose: 50.0 mg/kg/injection, schedule: Q01DX Z (ip), vehicle: carboxymethylcellulose (CMC)
[13] = dose: 2.5 mg/kg/injection, schedule: Q01DX Z (ip), vehicle: carboxymethylcellulose (CMC)
[14] = dose: 62.5 mg/kg/injection, schedule: Q01DX Z (ip), vehicle: carboxymethylcellulose (CMC)
[15] = dose: 125.0 mg/kg/injection, schedule: Q01DX Z (ip), vehicle: carboxymethylcellulose (CMC)
[16] = dose: 250.0 mg/kg/injection, schedule: Q01DX Z (ip), vehicle: carboxymethylcellulose (CMC)

CCC(=O)O[C@H]1CC[C@H]2[C@@H]3CCC4=CC(=O)CC[C@]4(C)[C@H]3CC[C@]12C
T/C (dose: 31.25 mg/kg/injection, schedule: Q01DX Z (sc), vehicle: steriod suspending solution): 92 % of control | T/C (dose: 62.5 mg/kg/injection, schedule: Q01DX Z (sc), vehicle: steriod suspending solution): 111 % of control | T/C [1]: 107 % of control and 116 % of control | T/C (dose: 250.0 mg/kg/injection, schedule: Q01DX Z (sc), vehicle: steriod suspending solution): 107 % of control | T/C (dose: 500.0 mg/kg/injection, schedule: Q01DX Z (sc), vehicle: steriod suspending solution): 95 % of control | T/C (dose: 2000.0 mg/kg/injection, schedule: Q01DX Z (sc), vehicle: steriod suspending solution): 122 % of control

CS(=O)(=O)OCCN(CCOS(C)(=O)=O)c1ccc(N=O)cc1
T/C [2]: 122 % of control | T/C [3]: 104 % of control | T/C (dose: 62.5 micrograms/kg/injection, schedule: Q01DX010 (ip), vehicle: saline): 155 % of control | T/C (dose: 125.0 micrograms/kg/injection, schedule: Q01DX010 (ip), vehicle: saline): 194 % of control | T/C (dose: 250.0 micrograms/kg/injection, schedule: Q01DX010 (ip), vehicle: saline): 277 % of control | T/C (dose: 500.0 micrograms/kg/injection, schedule: Q01DX010 (ip), vehicle: saline): 238 % of control

C1CN1c1nc(N2CC2)nc(N2CC2)n1
T/C (dose: 0.03 mg/kg/injection, schedule: Q01DX Z (ip), vehicle: saline): 92 % of control | T/C (dose: 0.06 mg/kg/injection, schedule: Q01DX Z (ip), vehicle: saline): 107 % of control | T/C (dose: 0.13 mg/kg/injection, schedule: Q01DX010 (ip), vehicle: saline): 95 % of control and 100 % of control | T/C (dose: 0.25 mg/kg/injection, schedule: Q01DX010 (ip), vehicle: saline): 94 % of control | T/C (dose: 0.25 mg/kg/injection, schedule: Q01DX Z (ip), vehicle: saline): 122 % of control and 102 % of control | T/C [2]: 109 % of control | T/C (dose: 0.5 mg/kg/injection, schedule: Q01DX Z (ip), vehicle: saline): 121 % of control and 90 % of control | T/C [3]: 88 % of control | T/C (dose: 1.0 mg/kg/injection, schedule: Q01DX Z (ip), vehicle: saline): 102 % of control | T/C (dose: 24.0 micrograms/kg/injection, schedule: Q01DX Z (ip), vehicle: saline): 89 % of control | T/C (dose: 48.0 micrograms/kg/injection, schedule: Q01DX Z (ip), vehicle: saline): 96 % of control | T/C (dose: 95.0 micrograms/kg/injection, schedule: Q01DX Z (ip), vehicle: saline): 98 % of control | T/C (dose: 190.0 micrograms/kg/injection, schedule: Q01DX Z (ip), vehicle: saline): 89 % of control

CC(=O)N(C)C
T/C [4]: 100 % of control | T/C [5]: 90 % of control and 95 % of control | T/C [6]: 90 % of control and 95 % of control | T/C [7]: 90 % of control and 95 % of control

CC/C(=C(/CC)c1ccc(O)cc1)c1ccc(O)cc1
T/C [8]: 100 % of control | T/C (dose: 16.0 mg/kg/injection, schedule: Q01DX Z (sc), vehicle: steriod suspending solution): 95 % of control | T/C [9]: 100 % of control and 105 % of control | T/C (dose: 50.0 mg/kg/injection, schedule: Q01DX010 (ip), vehicle: saline): 100 % of control and 105 % of control | T/C [1]: 88 % of control

CCCCCCCCCCCCNCCCCCCCCCCCC
T/C (dose: 0.24 mg/kg/injection, schedule: Q01DX Z (ip), vehicle: saline): 91 % of control | T/C (dose: 0.48 mg/kg/injection, schedule: Q01DX Z (ip), vehicle: carboxymethylcellulose (CMC)): 112 % of control | T/C (dose: 0.48 mg/kg/injection, schedule: Q01DX Z (ip), vehicle: saline): 90 % of control | T/C (dose: 1.9 mg/kg/injection, schedule: Q01DX Z (ip), vehicle: carboxymethylcellulose (CMC)): 101 % of control | T/C (dose: 1.9 mg/kg/injection, schedule: Q01DX Z (ip), vehicle: saline): 94 % of control | T/C (dose: 3.8 mg/kg/injection, schedule: Q01DX Z (ip), vehicle: carboxymethylcellulose (CMC)): 103 % of control

O=c1[nH]c(=O)n(C2CC(O)C(CO)O2)cc1F (stereo not given)
T/C (dose: 5.0 mg/kg/injection, schedule: Q01DX010 (ip), vehicle: saline): 110 % of control | T/C [10]: 124 % of control | T/C (dose: 10.0 mg/kg/injection, schedule: Q01DX010 (ip), vehicle: saline): 120 % of control and 104 % of control | T/C [11]: 122 % of control | T/C (dose: 20.0 mg/kg/injection, schedule: Q01DX010 (ip), vehicle: saline): 110 % of control | T/C (dose: 40.0 mg/kg/injection, schedule: Q01DX010 (ip), vehicle: saline): 155 % of control and 250 % of control | T/C [12]: 172 % of control

N#Cc1cn(C2OC(CO)C(O)C2O)c2ncnc(N)c12 (stereo not given)
T/C (dose: 0.03 mg/kg/injection, schedule: Q01DX Z (ip), vehicle: carboxymethylcellulose (CMC)): 97 % of control | T/C (dose: 0.06 mg/kg/injection, schedule: Q01DX Z (ip), vehicle: carboxymethylcellulose (CMC)): 103 % of control | T/C (dose: 0.12 mg/kg/injection, schedule: Q01DX Z (ip), vehicle: carboxymethylcellulose (CMC)): 103 % of control | T/C (dose: 0.25 mg/kg/injection, schedule: Q01DX Z (ip), vehicle: carboxymethylcellulose (CMC)): 88 % of control | T/C (dose: 0.5 mg/kg/injection, schedule: Q01DX Z (ip), vehicle: carboxymethylcellulose (CMC)): 94 % of control

COC12C(COC(N)=O)C3=C(C(=O)C(C)=C(N)C3=O)N1CC1C2N1C (stereo not given)
T/C (dose: 0.63 mg/kg/injection, schedule: Q01DX Z (ip), vehicle: carboxymethylcellulose (CMC)): 123 % of control | T/C (dose: 1.25 mg/kg/injection, schedule: Q01DX Z (ip), vehicle: carboxymethylcellulose (CMC)): 107 % of control | T/C [13]: 112 % of control | T/C (dose: 5.0 mg/kg/injection, schedule: Q01DX Z (ip), vehicle: carboxymethylcellulose (CMC)): 152 % of control

O=CCC(O)C(O)C(O)CO (stereo not given)
T/C (dose: 31.25 mg/kg/injection, schedule: Q01DX Z (ip), vehicle: carboxymethylcellulose (CMC)): 95 % of control | T/C [14]: 88 % of control | T/C [15]: 88 % of control | T/C [16]: 97 % of control

O=C(O)CCCc1ccc(N(CCCl)CCCl)cc1
T/C (dose: 0.8 mg/kg/injection, schedule: Q01DX Z (ip), vehicle: carboxymethylcellulose (CMC)): 90 % of control | T/C (dose: 1.6 mg/kg/injection, schedule: Q01DX Z (ip), vehicle: carboxymethylcellulose (CMC)): 92 % of control | T/C (dose: 3.1 mg/kg/injection, schedule: Q01DX Z (ip), vehicle: carboxymethylcellulose (CMC)): 102 % of control | T/C (dose: 3.13 mg/kg/injection, schedule: Q01DX010 (ip), vehicle: saline): 105 % of control and 120 % of control | T/C (dose: 6.2 mg/kg/injection, schedule: Q01DX Z (ip), vehicle: carboxymethylcellulose (CMC)): 113 % of control | T/C (dose: 6.25 mg/kg/injection, schedule: Q01DX010 (ip), vehicle: saline): 105 % of control and 115 % of control | T/C [10]: 86 % of control | T/C [11]: 107 % of control | T/C (dose: 25.0 mg/kg/injection, schedule: Q01DX Z (ip), vehicle: carboxymethylcellulose (CMC)): 114 % of control | T/C [12]: 102 % of control

N=[N+]=CC(=O)OCC(N)C(=O)O (stereo not given)
T/C (dose: 0.94 mg/kg/injection, schedule: Q01DX Z (ip), vehicle: saline): 113 % of control | T/C (dose: 1.25 mg/kg/injection, schedule: Q01DX Z (ip), vehicle: saline): 118 % of control and 122 % of control | T/C (dose: 2.5 mg/kg/injection, schedule: Q01DX Z (ip), vehicle: saline): 107 % of control and 117 % of control | T/C (dose: 3.75 mg/kg/injection, schedule: Q01DX Z (ip), vehicle: saline): 160 % of control | T/C [8]: 175 % of control | T/C [9]: 90 % of control and 95 % of control

OCC1OC(n2cnc3c(Cl)ncnc32)C(O)C1O (stereo not given)
T/C [13]: 103 % of control | T/C [4]: 95 % of control | T/C [14]: 95 % of control | T/C [5]: 90 % of control | T/C [15]: 91 % of control | T/C [6]: 100 % of control | T/C [16]: 118 % of control and 95 % of control | T/C [7]: 100 % of control | T/C (dose: 500.0 mg/kg/injection, schedule: Q01DX Z (ip), vehicle: carboxymethylcellulose (CMC)): 98 % of control and 104 % of control
